{"source": "paper PMC6789111", "about": "“Crossing the blood-brain-barrier with nanoligand drug carriers self-assembled from a phage display peptide” (Nature Communications, 2019)", "key": {"GFAP": {"system": "GFAP", "test": "ELISA of GFAP in hippocampus", "assay_type": "in vivo, ICR mice", "settings": "Ave."}, "IL-1β": {"system": "IL-1β", "test": "ELISA of IL-1β in hippocampus", "assay_type": "in vivo, ICR mice", "settings": "Ave."}, "hCMEC/D3 cells [1]": {"system": "hCMEC/D3 cells", "test": "Cell uptake by flow cytometry", "assay_type": "cell-based, human", "settings": "5 µM, foetal bovine serum, 16 h, 37 °C (Supplementary Fig. 12)", "description": "Peptide internalisation was measured by flow cytometry (FACS ArrayTM Cell Analysis, Becton, Dickinson and Company, NJ, USA). Cells (1 × 10^5 cm^−2) were seeded on 24-well plates and grown 1 day at 37 °C and 5% CO2 in order to reach 60–70% confluence. The cells were washed 3 times with pre-heated PBS. The uptake studies were initiated by adding 500 µL of 5 µM fluorescence-labelled peptides (diluted in cell medium containing with different serum concentration). Serum concentration in incubation varied from 5 to 20% (v/v). […] A total of 10,000 cells were analysed by flow cytometry."}, "hCMEC/D3 cells [2]": {"system": "hCMEC/D3 cells", "method": "LDH release was followed at 24 h post transfection procedures. The measurement was performed using CytoTox96® Non-Radioactive Cytotoxicity Assay kit (Promega, WI, USA)[43]. The maximum amount of LDH in the cells, induced by the addition of a lysis solution, was measured and used as a 100% LDH release and compared with peptidoplex and siPORT-siRNA complex-induced LDH release as well as to spontaneous cellular LDH release (untreated cells)."}, "hCMEC/D3 cell monolayer": {"system": "hCMEC/D3 cell monolayer", "test": "Transwell in vitro BBB model", "assay_type": "cell-based, human", "description": "For the construction of the in vitro BBB model, hCMEC/D3 cells were seeded on rat tail collagen-coated polycarbonate membranes (Transwell, No. 3401 Costar; Corning, Wiesbaden, Germany; 0.4 μm pore size; 1.13 cm^2 growth area) with a density of 100,000 cells cm^−2. Every three days the cell medium was change. In general after 7 days growth, the cells reached confluence. The transendothelial electrical resistance (TEER) and cell layer capacitance (CCL), which reflects the membrane surface area of the hCMEC/D3 cell monolayer, were measured using CellZscope system (NanoAnalytics, Münster, Germany). Cells with CCL values in the range of 0.5–5.0 μF cm^−2 indicate cell confluence and validate TEER values were selected for the transfer experiments. NLCs at different concentrations were introduced in to the apical side of the BBB model. The TEER values were measured during the incubation. After 24 h of incubation, the media from basal and apical sides were sampled and analysed for fluorescent measurement. CD31 and paracellular adherens (β-catenin) junctions were assessed by immunofluorescence labeling directly on the cell monolayer attached to the transwell membrane. Briefly, cells were fixed by 4% v/v paraformaldehyde for 10 min, rinsed and then permeabilised with 0.5% (v/v) Triton X-100 for 10 min. After rinsing samples were blocked by 5% w/v BSA for 1 h, followed by incubation with primary antibodies (rabbit polyclonal to CD31, rabbit polyclonal to anti-β-catenin) in 1% w/v BSA overnight at 4 °C. […] After rinsing, the red fluorescence from tight junction proteins was observed by a Leica AF6000LX microscope equipped with a 63 × objective using ×1.6 magnifications. […]\nformation of multiple cell-layers was sometime observed from day 7 onward. […] TEER values and its corresponding capacitance were recorded after the introduction of peptide for 24 h. (d) & (e) Staining and quantification of endothelial cells (CD31) and adheren β-catenin markers confirming the presence of a functional tight junction before and after NLC ( 5 µM) challenge. […]"}, "hCMEC/D3 cells [3]": {"system": "hCMEC/D3 cells", "test": "Competition studies of NLC uptake", "assay_type": "cell-based, human", "description": "The amyloid β1–42 oligomers were prepared using a previous method. BSA was used as control protein competitor. The fluorescence microscopy and FACS were employed to observe and quantify FAM-CGY self-assembly uptake, respectively."}, "TNF-α": {"system": "TNF-α", "settings": "Ave.", "description": "Tissues were sectioned at a […] thickness.\nBlood samples were collected for determination of red blood cell count, white blood cell count, haemoglobin, haematocrit, mean corpuscular volume, mean corpuscular haemoglobin, mean corpuscular haemoglobin concentration and platelet count (XFA6030, Perlong Medical Inc., China). Hippocampus was dissected out, rinsed in ice-cold PBS thoroughly, weighted and immediately frozen in liquid nitrogen. Tissues were cut into small pieces and homogenized in 1 mL ice-cold PBS with a glass homogeniser and sonicated with an ultrasonic cell disrupter to break the cell membranes. Homogenates were centrifuges for 5 min at 5,000 × g and supernatants were assayed immediately for quantitative determination of TNF-α, IL-6, IL-1β, Iba-1 and GFAP by corresponding ELISA kits, respectively in accordance with manufacturer’s instructions."}, "IL-6": {"system": "IL-6", "test": "ELISA of IL-6 in hippocampus", "assay_type": "in vivo, ICR mice", "settings": "Ave.", "method": "After 4, 24 and 72 h post injection, mice were sacrificed and perfused with 10 mL 0.9% (w/v) saline at a rate of 2 mL min^−1."}}, "note": "Read-outs that look alike come from different tables or passages of the source. Peptide text beside a SMILES is read from it. * marks the point of attachment. 5FAM = O=C1OC2(c3ccc(O)cc3Oc3cc(O)ccc32)c2ccc(C(=O)*)cc21"}
{"smiles": "CC[C@H](C)[C@H](NC(=O)[C@H](CC(N)=O)NC(=O)[C@H](Cc1c[nH]cn1)NC(=O)[C@@H](NC(=O)[C@@H]1CCCN1C(=O)[C@H](CCCNC(=N)N)NC(=O)[C@H](Cc1ccc(O)cc1)NC(=O)CNC(=O)[C@H](CS)NC(=O)c1ccc2c(c1)C(=O)OC21c2ccc(O)cc2Oc2cc(O)ccc21)C(C)C)C(=O)N[C@@H](CCCNC(=N)N)C(=O)NCC(=O)N[C@@H](Cc1c[nH]cn1)C(=O)N[C@@H](Cc1c[nH]c2ccccc12)C(=O)N[C@@H](C)C(=O)N1CCC[C@H]1C(=O)NCC(=O)O", "note": "[FAM-CGY] (5FAM-CGYRPVHNIRGHWAPG-OH)", "values": [{"measurement": "GFAP in hippocampus (Figure 6i)", "setting": "GFAP; 4 h after i.v.", "value": 219.00}, {"measurement": "GFAP in hippocampus (Figure 6i)", "setting": "GFAP; 24 h after i.v. (LPS 24 h)", "value": 209.59}, {"measurement": "GFAP in hippocampus (Figure 6i)", "setting": "GFAP; 72 h after i.v.", "value": 220.69}, {"measurement": "IL-1β in hippocampus (Figure 6g)", "setting": "IL-1β; 4 h after i.v.", "value": 21.06}, {"measurement": "IL-1β in hippocampus (Figure 6g)", "setting": "IL-1β; 24 h after i.v. (LPS 24 h)", "value": 23.58}, {"measurement": "IL-1β in hippocampus (Figure 6g)", "setting": "IL-1β; 72 h after i.v.", "value": 22.65}, {"measurement": "effect of serum proteins on association with endothelial cells", "setting": "hCMEC/D3 cells [1]", "value": "not affected by the presence of serum proteins"}, {"measurement": "plasma membrane integrity (extracellular LDH)", "setting": "hCMEC/D3 cells [2]", "value": "neither FAM-CGY NLCs nor FAM-CGY/siRNA nanoparticles perturbed plasma membrane integrity"}, {"measurement": "transport across the hCMEC/D3 monolayer", "setting": "hCMEC/D3 cell monolayer", "value": "transport of a fraction across the monolayer"}, {"measurement": "inhibition of NLC uptake by transferrin", "setting": "hCMEC/D3 cells [3]; 500 nM partially iron saturated human transferrin, 37 °C", "value": "~ 50%"}, {"measurement": "FAM-CGY uptake (% of control)", "setting": "hCMEC/D3 cells [3]; 5 µM NLC + 62.5 nM Tf, Ave. All", "value": "78.89 % of control"}, {"measurement": "FAM-CGY uptake (% of control)", "setting": "hCMEC/D3 cells [3]; 5 µM NLC + 62.5 nM Tf, Set 2", "value": "73.26 % of control"}, {"measurement": "FAM-CGY uptake (% of control)", "setting": "hCMEC/D3 cells [3]; 5 µM NLC + 62.5 nM Tf, Set 3", "value": "81.15 % of control"}, {"measurement": "FAM-CGY uptake (% of control)", "setting": "hCMEC/D3 cells [3]; 5 µM NLC + 62.5 nM transferrin (Tf), 16 h, FACS, Set 1", "value": "82.27 % of control"}, {"measurement": "FAM-CGY uptake (% of control)", "setting": "hCMEC/D3 cells [3]; 5 µM NLC + 250 nM Tf+20 μg RAGE P, Ave. All", "value": "33.57 % of control"}, {"measurement": "FAM-CGY uptake (% of control)", "setting": "hCMEC/D3 cells [3]; 5 µM NLC + 250 nM Tf, Ave. All", "value": "53.82 % of control"}, {"measurement": "FAM-CGY uptake (% of control)", "setting": "hCMEC/D3 cells [3]; 5 µM NLC + 500 nM Tf, Ave. All", "value": "48.73 % of control"}, {"measurement": "FAM-CGY uptake (% of control)", "setting": "hCMEC/D3 cells [3]; 5 µM NLC + 5 μg RAGE P, Ave. All", "value": "90.44 % of control"}, {"measurement": "FAM-CGY uptake (% of control)", "setting": "hCMEC/D3 cells [3]; 5 µM NLC + 5 μg RAGE P, Set 2", "value": "86.26 % of control"}, {"measurement": "FAM-CGY uptake (% of control)", "setting": "hCMEC/D3 cells [3]; 5 µM NLC + 5 μg RAGE P, Set 3", "value": "92.62 % of control"}, {"measurement": "FAM-CGY uptake (% of control)", "setting": "hCMEC/D3 cells [3]; 5 µM NLC + 5 μg RAGE peptide (RAGE P), Set 1", "value": "92.46 % of control"}, {"measurement": "FAM-CGY uptake (% of control)", "setting": "hCMEC/D3 cells [3]; 5 µM NLC + 10 μg RAGE P, Ave. All", "value": "82.03 % of control"}, {"measurement": "FAM-CGY uptake (% of control)", "setting": "hCMEC/D3 cells [3]; 5 µM NLC + 20 μg RAGE P, Ave. All", "value": "58.83 % of control"}, {"measurement": "FAM-CGY uptake (% of control)", "setting": "hCMEC/D3 cells [3]; 5 µM NLC + 40 μg BSA (irrelevant protein), Set 1", "value": "108.69 % of control"}, {"measurement": "FAM-CGY uptake (% of control)", "setting": "hCMEC/D3 cells [3]; 5 µM NLC + 40 μg BSA, Ave. All", "value": "103.56 % of control"}, {"measurement": "FAM-CGY uptake (% of control)", "setting": "hCMEC/D3 cells [3]; 5 µM NLC + 40 μg BSA, Set 2", "value": "96.26 % of control"}, {"measurement": "FAM-CGY uptake (% of control)", "setting": "hCMEC/D3 cells [3]; 5 µM NLC + 40 μg BSA, Set 3", "value": "105.73 % of control"}, {"measurement": "block of NLC uptake by transferrin plus RAGE peptide ligand", "setting": "hCMEC/D3 cells [3]; simultaneous presence of both", "value": "~ 70%"}, {"measurement": "TNF-α in hippocampus (Figure 6e)", "setting": "TNF-α; 4 h after i.v.", "value": 13.40}, {"measurement": "TNF-α in hippocampus (Figure 6e)", "setting": "TNF-α; 24 h after i.v. (LPS 24 h)", "value": 12.87}, {"measurement": "TNF-α in hippocampus (Figure 6e)", "setting": "TNF-α; 72 h after i.v.", "value": 12.94}, {"measurement": "IL-6 in hippocampus (Figure 6f)", "setting": "IL-6; 4 h after i.v.", "value": 6.03}, {"measurement": "IL-6 in hippocampus (Figure 6f)", "setting": "IL-6; 72 h after i.v.", "value": 6.23}]}
